This passage reports IC50 results from patent US20230022400A1, “IMMUNOMODULATORS” (Bristol-Myers Squibb Company, priority 2019, published 2023).

Where a SMILES comes first, the peptide text is derived from it. Bridges are numbered along the chain shown (N, C = ends). [ ]: non-standard residue; d: D form. The star is where a group is joined. Trp(1-CH2CO2Me) = COC(=O)Cn1cc(C[C@H](N)C(=O)O)c2ccccc21; Trp(1-CH2COOH) = N[C@@H](Cc1cn(CC(=O)O)c2ccccc12)C(=O)O; X7 = Cc1ccc(-n2c3ccccc3c3c(*)nc(C)nc32)nc1; X22 = Cc1ccc2c(c1)[nH]c1nc(Cl)nc(*)c12; Hyp = O=C(O)[C@@H]1C[C@@H](O)CN1; X20 = Cc1ccc2[nH]c3c(*)ncnc3c2c1; X8 = Cn1cnc2c(Cl)nc3sc(*)nc3c21; X13 = Clc1ccc2oc3c(*)ncnc3c2c1; X2 = CSc1nc(*)c2sc3ccccc3c2n1; NMeNle = CCCC[C@H](NC)C(=O)O; NMeA = CN[C@@H](C)C(=O)O; Dab = NCC[C@H](N)C(=O)O; X21 = Fc1ccc2nc(*)sc2c1; Dap = NC[C@H](N)C(=O)O; X1 = c1ccc2sc(*)nc2c1

The assay deals with T1, PD-1/PD-L1 interaction (PD-1-Ig / PD-L1-His) (Homo sapiens, UniProt Q9NZQ7).
T1 construct: TVMV protease site (linker) (C); made in house; host or cells: HEK293T cells
T1 sequence (Q9NZQ7 18-239): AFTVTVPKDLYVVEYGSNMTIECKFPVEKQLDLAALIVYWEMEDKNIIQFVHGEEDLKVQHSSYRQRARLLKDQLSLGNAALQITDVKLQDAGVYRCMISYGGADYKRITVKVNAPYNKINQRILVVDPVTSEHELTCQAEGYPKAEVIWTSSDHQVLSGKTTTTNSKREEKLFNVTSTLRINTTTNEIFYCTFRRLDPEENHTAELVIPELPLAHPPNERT
The assay is described as follows: PD-1/PD-L1 Homogenous Time-Resolved Fluorescence (HTRF) binding assay. The following applies: PD-L1-His 10 nM final, PD-1-Ig 20 nM final; inhibitors pre-incubated with PD-L1-His for 15 m. From the text:
The ability of the compounds of formula (I) to bind to PD-L1 was investigated using a PD-1/PD-L1 Homogenous Time-Resolved Fluorescence (HTRF) binding assay.
The interaction of PD-1 and PD-L1 can be assessed using soluble, purified preparations of the extracellular domains of the two proteins. The PD-1 and PD-L1 protein extracellular domains were expressed as fusion proteins with detection tags, for PD-1, the tag was the Fc portion of Immunoglobulin (PD-1-Ig) and for PD-L1 it was the 6 histidine motif (PD-L1-His). All binding studies were performed in an HTRF assay buffer consisting of dPBS supplemented with 0.1% […] bovine serum albumin and 0.05% (v/v) Tween-20. For the h/PD-L1-His binding assay, inhibitors were pre-incubated with PD-L1-His (10 nM final) for 15 m in 4 μl of assay buffer, followed by addition of PD-1-Ig (20 nM final) in 1 μl of assay buffer and further incubation for 15 m. HTRF detection was achieved using europium crypate-labeled anti-Ig (1 nM final) and allophycocyanin (APC) labeled anti-His (20 nM final). Antibodies were diluted in HTRF detection buffer and 5 μl was dispensed on top of the binding reaction. The reaction mixture was allowed to equilibrate for 30 minutes and the resulting signal (665 nm/620 nm ratio) was obtained using an EnVision fluorometer. Additional binding assays were established between the human proteins PD-1-Ig/PD-L2-His (20 & 5 nM, respectively) and CD80-His/PD-L1-Ig (100 & 10 nM, respectively).
Recombinant Proteins: Human PD-1 (25-167) with a C-terminal human Fc domain of immunoglobulin G (Ig) epitope tag [hPD-1 (25-167)-3S-IG] and human PD-L1 (18-239) with a C-terminal His epitope tag [hPD-L1(18-239)-TVMV-His] were expressed in HEK293T cells and purified sequentially by ProteinA affinity chromatography and size exclusion chromatography. Human PD-L2-His and CD80-His was obtained through commercial sources.
Table 1 lists the IC50 values for representative examples of this disclosure measured in the PD-1/PD-L1 Homogenous Time-Resolved Fluorescence (HTRF) binding assay.

Turning to `CCCC[C@H]1C(=O)N(C)[C@@H](CCCC)C(=O)N[C@@H](CC(C)C)C(=O)N[C@H](C(=O)NCC(N)=O)CSCC(=O)N[C@@H](Cc2ccc(O)cc2)C(=O)N(C)[C@@H](C)C(=O)N[C@@H](CC(N)=O)C(=O)N2CCC[C@H]2C(=O)N[C@@H](CNc2nc3ccc(F)cc3s2)C(=O)N[C@@H](CC(C)C)C(=O)N2C[C@H](O)C[C@H]2C(=O)N[C@@H](Cc2c[nH]c3ccccc23)C(=O)N[C@@H](CCN)C(=O)N[C@@H](Cc2cn(CC(=O)O)c3ccccc23)C(=O)N1C` [Compound 11010] ({CH2CO}-Y[NMeA]NP[Dap](X21)L[Hyp]W[Dab][Trp(1-CH2COOH)][NMeNle][NMeNle]LCG-NH2; thioether N-14), the IC50 (as a rule, the concentration that inhibits the measured activity by half) came out at 45 nM.

Consider `CCCC[C@H]1C(=O)N(C)[C@@H](CCCC)C(=O)N[C@@H](CC(C)C)C(=O)N[C@H](C(=O)NCC(N)=O)CSCC(=O)N[C@@H](Cc2ccc(O)cc2)C(=O)N(C)[C@@H](C)C(=O)N[C@@H](CC(N)=O)C(=O)N2CCC[C@H]2C(=O)N[C@@H](CNc2nc3ccccc3s2)C(=O)N[C@@H](CC(C)C)C(=O)N2C[C@H](O)C[C@H]2C(=O)N[C@@H](Cc2c[nH]c3ccccc23)C(=O)N[C@@H](CCN)C(=O)N[C@@H](Cc2cn(CC(=O)O)c3ccccc23)C(=O)N1C` [Compound 11012] ({CH2CO}-Y[NMeA]NP[Dap](X1)L[Hyp]W[Dab][Trp(1-CH2COOH)][NMeNle][NMeNle]LCG-NH2; thioether N-14), for which the IC50 was 7.9 nM.

For `CCCC[C@H]1C(=O)N(C)[C@@H](CCCC)C(=O)N[C@@H](CC(C)C)C(=O)N[C@H](C(=O)NCC(N)=O)CSCC(=O)N[C@@H](Cc2ccc(O)cc2)C(=O)N(C)[C@@H](C)C(=O)N[C@@H](CC(N)=O)C(=O)N2CCC[C@H]2C(=O)N[C@@H](CNc2nc3ccccc3s2)C(=O)N[C@@H](CC(C)C)C(=O)N2C[C@H](O)C[C@H]2C(=O)N[C@@H](Cc2c[nH]c3ccccc23)C(=O)N[C@@H](CCNc2nc3ccccc3s2)C(=O)N[C@@H](Cc2cn(CC(=O)OC)c3ccccc23)C(=O)N1C` [Compound 12001] ({CH2CO}-Y[NMeA]NP[Dap](X1)L[Hyp]W[Dab](X1)[Trp(1-CH2CO2Me)][NMeNle][NMeNle]LCG-NH2; thioether N-14), the IC50 was determined as 138 nM.

Regarding `CCCC[C@H]1C(=O)N(C)[C@@H](CCCC)C(=O)N[C@@H](CC(C)C)C(=O)N[C@H](C(=O)NCC(N)=O)CSCC(=O)N[C@@H](Cc2ccc(O)cc2)C(=O)N(C)[C@@H](C)C(=O)N[C@@H](CC(N)=O)C(=O)N2CCC[C@H]2C(=O)N[C@@H](CNc2nc3c(nc(Cl)c4ncn(C)c43)s2)C(=O)N[C@@H](CC(C)C)C(=O)N2C[C@H](O)C[C@H]2C(=O)N[C@@H](Cc2c[nH]c3ccccc23)C(=O)N[C@@H](CCN)C(=O)N[C@@H](Cc2cn(CC(=O)O)c3ccccc23)C(=O)N1C` [Compound 21001] ({CH2CO}-Y[NMeA]NP[Dap](X8)L[Hyp]W[Dab][Trp(1-CH2COOH)][NMeNle][NMeNle]LCG-NH2; thioether N-14), the IC50 is 2.4 nM.

The compound `CCCC[C@H]1C(=O)N(C)[C@@H](CCCC)C(=O)N[C@@H](CC(C)C)C(=O)N[C@H](C(=O)NCC(N)=O)CSCC(=O)N[C@@H](Cc2ccc(O)cc2)C(=O)N(C)[C@@H](C)C(=O)N[C@@H](CC(N)=O)C(=O)N2CCC[C@H]2C(=O)N[C@@H](CNc2ncnc3c2[nH]c2ccc(C)cc23)C(=O)N[C@@H](CC(C)C)C(=O)N2C[C@H](O)C[C@H]2C(=O)N[C@@H](Cc2c[nH]c3ccccc23)C(=O)N[C@@H](CCN)C(=O)N[C@@H](Cc2cn(CC(=O)O)c3ccccc23)C(=O)N1C` [Compound 21003] ({CH2CO}-Y[NMeA]NP[Dap](X20)L[Hyp]W[Dab][Trp(1-CH2COOH)][NMeNle][NMeNle]LCG-NH2; thioether N-14) displayed an IC50 of 13 nM.

`CCCC[C@H]1C(=O)N(C)[C@@H](CCCC)C(=O)N[C@@H](CC(C)C)C(=O)N[C@H](C(=O)NCC(N)=O)CSCC(=O)N[C@@H](Cc2ccc(O)cc2)C(=O)N(C)[C@@H](C)C(=O)N[C@@H](CC(N)=O)C(=O)N2CCC[C@H]2C(=O)N[C@@H](CNc2nc3c(nc(Cl)c4ncn(C)c43)s2)C(=O)N[C@@H](CC(C)C)C(=O)N2C[C@H](O)C[C@H]2C(=O)N[C@@H](Cc2c[nH]c3ccccc23)C(=O)N[C@@H](CCNc2nc3c(nc(Cl)c4ncn(C)c43)s2)C(=O)N[C@@H](Cc2cn(CC(=O)O)c3ccccc23)C(=O)N1C` [Compound 21004] ({CH2CO}-Y[NMeA]NP[Dap](X8)L[Hyp]W[Dab](X8)[Trp(1-CH2COOH)][NMeNle][NMeNle]LCG-NH2; thioether N-14) returned an IC50 of 5.7 nM.

`CCCC[C@H]1C(=O)N(C)[C@@H](CCCC)C(=O)N[C@@H](CC(C)C)C(=O)N[C@H](C(=O)NCC(N)=O)CSCC(=O)N[C@@H](Cc2ccc(O)cc2)C(=O)N(C)[C@@H](C)C(=O)N[C@@H](CC(N)=O)C(=O)N2CCC[C@H]2C(=O)N[C@@H](CNc2nc(C)nc3c2c2ccccc2n3-c2ccc(C)cn2)C(=O)N[C@@H](CC(C)C)C(=O)N2C[C@H](O)C[C@H]2C(=O)N[C@@H](Cc2c[nH]c3ccccc23)C(=O)N[C@@H](CCN)C(=O)N[C@@H](Cc2cn(CC(=O)O)c3ccccc23)C(=O)N1C` [Compound 21005] ({CH2CO}-Y[NMeA]NP[Dap](X7)L[Hyp]W[Dab][Trp(1-CH2COOH)][NMeNle][NMeNle]LCG-NH2; thioether N-14): the IC50 is 25 nM.

`CCCC[C@H]1C(=O)N(C)[C@@H](CCCC)C(=O)N[C@@H](CC(C)C)C(=O)N[C@H](C(=O)NCC(N)=O)CSCC(=O)N[C@@H](Cc2ccc(O)cc2)C(=O)N(C)[C@@H](C)C(=O)N[C@@H](CC(N)=O)C(=O)N2CCC[C@H]2C(=O)N[C@@H](CNc2ncnc3c2oc2ccc(Cl)cc23)C(=O)N[C@@H](CC(C)C)C(=O)N2C[C@H](O)C[C@H]2C(=O)N[C@@H](Cc2c[nH]c3ccccc23)C(=O)N[C@@H](CCNc2ncnc3c2oc2ccc(Cl)cc23)C(=O)N[C@@H](Cc2cn(CC(=O)O)c3ccccc23)C(=O)N1C` [Compound 21006] ({CH2CO}-Y[NMeA]NP[Dap](X13)L[Hyp]W[Dab](X13)[Trp(1-CH2COOH)][NMeNle][NMeNle]LCG-NH2; thioether N-14): the IC50 turned out to be 12 nM.

Take `CCCC[C@H]1C(=O)N(C)[C@@H](CCCC)C(=O)N[C@@H](CC(C)C)C(=O)N[C@H](C(=O)NCC(N)=O)CSCC(=O)N[C@@H](Cc2ccc(O)cc2)C(=O)N(C)[C@@H](C)C(=O)N[C@@H](CC(N)=O)C(=O)N2CCC[C@H]2C(=O)N[C@@H](CNc2nc(Cl)nc3[nH]c4cc(C)ccc4c23)C(=O)N[C@@H](CC(C)C)C(=O)N2C[C@H](O)C[C@H]2C(=O)N[C@@H](Cc2c[nH]c3ccccc23)C(=O)N[C@@H](CCN)C(=O)N[C@@H](Cc2cn(CC(=O)O)c3ccccc23)C(=O)N1C` [Compound 21007] ({CH2CO}-Y[NMeA]NP[Dap](X22)L[Hyp]W[Dab][Trp(1-CH2COOH)][NMeNle][NMeNle]LCG-NH2; thioether N-14): the IC50 came to 4.4 nM.

The compound `CCCC[C@H]1C(=O)N(C)[C@@H](CCCC)C(=O)N[C@@H](CC(C)C)C(=O)N[C@H](C(=O)NCC(N)=O)CSCC(=O)N[C@@H](Cc2ccc(O)cc2)C(=O)N(C)[C@@H](C)C(=O)N[C@@H](CC(N)=O)C(=O)N2CCC[C@H]2C(=O)N[C@@H](CNc2nc(SC)nc3c2sc2ccccc23)C(=O)N[C@@H](CC(C)C)C(=O)N2C[C@H](O)C[C@H]2C(=O)N[C@@H](Cc2c[nH]c3ccccc23)C(=O)N[C@@H](CCN)C(=O)N[C@@H](Cc2cn(CC(=O)O)c3ccccc23)C(=O)N1C` [Compound 21008] ({CH2CO}-Y[NMeA]NP[Dap](X2)L[Hyp]W[Dab][Trp(1-CH2COOH)][NMeNle][NMeNle]LCG-NH2; thioether N-14) gave a concentration for half-maximal inhibition (IC50) of 6.5 nM.

For the compound `CCCC[C@H]1C(=O)N(C)[C@@H](CCCC)C(=O)N[C@@H](CC(C)C)C(=O)N[C@H](C(=O)NCC(N)=O)CSCC(=O)N[C@@H](Cc2ccc(O)cc2)C(=O)N(C)[C@@H](C)C(=O)N[C@@H](CC(N)=O)C(=O)N2CCC[C@H]2C(=O)N[C@@H](CNc2nc(SC)nc3c2sc2ccccc23)C(=O)N[C@@H](CC(C)C)C(=O)N2C[C@H](O)C[C@H]2C(=O)N[C@@H](Cc2c[nH]c3ccccc23)C(=O)N[C@@H](CCNc2nc(SC)nc3c2sc2ccccc23)C(=O)N[C@@H](Cc2cn(CC(=O)O)c3ccccc23)C(=O)N1C` [Compound 21009] ({CH2CO}-Y[NMeA]NP[Dap](X2)L[Hyp]W[Dab](X2)[Trp(1-CH2COOH)][NMeNle][NMeNle]LCG-NH2; thioether N-14), the IC50 was found to be 136 nM.
